In publication PMC12884772, “Macrophagic Sclerostin Loop2‐ApoER2 Interaction Required by Sclerostin for Cardiovascular Protective Action” (Advanced Science, 2025):

Test system: human differentiated macrophages (THP‐1)
Test: LPS‐induced inflammatory responses in human differentiated macrophages (THP‐1), siNC or siLrp8
Assay type: cell-based
Description: To determine whether the suppressive effects of sclerostin on inflammatory responses in macrophages were dependent on ApoER2 in vitro, PMA (100 ng/mL, 48 h)‐induced human differentiated macrophages (THP‐1 cells, Procell Life Science & Technology, CL‐0233) and mouse macrophages (RAW 264.7 cells, ATCC, TIB‐71) were utilized. Human differentiated macrophages or mouse macrophages were divided into 9 groups (n = 3 per group), respectively, including (1) siNC, (2) siNC + LPS, (3) siNC + LPS + SOST 500 nM or 250 nM, (4) siNC + LPS + SOST 1 µM or 500 nM, (5) siNC + LPS + SOST 2 µM or 1 µM, (6) siLrp8 + LPS + SOST 500 nM or 250 nM, (7) siLrp8 + LPS + SOST 1µM or 500 nM, (8) siLrp8 + LPS + SOST 2 µM or 1 µM, (9) siLrp8 + LPS. Cells in groups (6‐9) were transfected with siRNA targeting human/mouse Lrp8 (human siLrp8: Santa Cruz Biotechnology sc‐40097, mouse siLrp8: Santa Cruz Biotechnology sc‐40098), while cells in groups (1‐5) were transfected with empty vector as control (siNC). 24 h later, cells in group (3)/(6), (4)/(7), and (5)/(8) were treated with recombinant human or mouse sclerostin for 3 h at concentration of 500 nM or 250 nM, 1 µM or 500 nM, as well as 2 µM or 1 µM, respectively, while cells in groups (1), (2), and (9) were treated with vehicle. Then, cells in groups (2‐9) were treated with LPS (100 ng/mL or 1 µg/mL) for 18 h. All groups of cell lysates were collected for determining the mRNA expression levels of TNF‐α, MCP‐1, and IL‐10 (human or mouse, respectively) by RT‐PCR.^[ [34] ^] Cell mediums were collected for determining the protein expression/secretion levels of TNF‐α, MCP‐1, and IL‐10 (human or mouse, respectively) by ELISA.^[ [34] ^]
Total RNA was extracted from cells following the protocols of Trizol reagent (Invitrogen, 15 596 026). […] The relative gene expression levels were calculated using the 2^−ΔΔCt method with GAPDH as the reference gene.^[ [40] ^] […]

[1] = THP‐1, LPS 100 ng/mL 18 h, recombinant human sclerostin 500 nM-2 µM for 3 h, RT‐PCR and ELISA, n = 3

sclerostin: recombinant human/mouse full‐length sclerostin protein
mRNA expression and protein expression/secretion of IL‐10 [1]: promoted
mRNA expression and protein expression/secretion of TNF‐α and MCP‐1 [1]: inhibited
Effects of sclerostin on cytokine/chemokine expression/secretion upon Lrp8 silencing (THP‐1 with siLrp8, LPS 100 ng/mL 18 h): not detected
